Measured values taken from ChEMBL document CHEMBL1138919, “Binding of methoxy-substituted N1-benzenesulfonylindole analogs at human 5-HT6 serotonin receptors” (Bioorg Med Chem Lett, 2006).

Target: 5-hydroxytryptamine receptor 6 (Homo sapiens, UniProt P50406)
Assay: Binding affinity to human 5HT6 receptor

5-hydroxytryptamine receptor 6, sequence (P50406 whole entry): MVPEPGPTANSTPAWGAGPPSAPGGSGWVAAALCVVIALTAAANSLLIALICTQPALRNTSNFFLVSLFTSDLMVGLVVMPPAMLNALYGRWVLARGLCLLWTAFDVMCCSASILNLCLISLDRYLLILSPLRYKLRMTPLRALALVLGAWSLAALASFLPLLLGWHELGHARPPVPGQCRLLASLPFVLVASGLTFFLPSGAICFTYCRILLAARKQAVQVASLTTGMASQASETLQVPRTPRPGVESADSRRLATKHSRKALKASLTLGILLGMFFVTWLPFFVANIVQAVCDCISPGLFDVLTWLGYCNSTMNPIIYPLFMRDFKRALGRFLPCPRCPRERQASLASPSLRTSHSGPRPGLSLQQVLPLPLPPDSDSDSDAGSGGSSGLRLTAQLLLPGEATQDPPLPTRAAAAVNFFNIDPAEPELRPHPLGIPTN

| Structure (SMILES) | Ki |
| --- | --- |
| CNc1ccc2c3c(n(S(=O)(=O)c4ccc(N)cc4)c2c1)CCCC3 | 205 nM |
| CNc1cccc2c1c1c(n2S(=O)(=O)c2ccc(N)cc2)CCCC1 | 165 nM |
| COc1cc(OC)c2c3c(n(S(=O)(=O)c4ccc(N)cc4)c2c1)CCCC3 | 210 nM |

Stronger by Ki, values ahead:

| Ki | Structure (SMILES) |
| --- | --- |
| 1.8 nM | COc1ccc2ccn(S(=O)(=O)c3ccc(N)cc3)c2c1 |
| 0.8 nM | COc1cc(OC)c2ccn(S(=O)(=O)c3ccc(N)cc3)c2c1 |
| 3.3 nM | COc1cccc2c1ccn2S(=O)(=O)c1ccc(N)cc1 |
